Source: patent US10899738B2 (THE REGENTS OF THE UNIVERSITY OF MICHIGAN, priority 2016, dated 2021)

molecular target: menin protein (Homo sapiens (Human), UniProt O00255); test: biochemical; assay type: binding; conditions: FP competitive binding; menin protein 4 nM, FAM-MM2 probe 2 nM
Method in brief: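 Test compounds displaced FAM-MM2 (2 nM) from 4 nM menin after 30 min equilibration at room temperature in PBS buffer containing bovine γ-globulin, 4% DMSO and Triton X-100. Binding was followed by fluorescence polarization. Competition curves were fitted by nonlinear regression to give IC50 and Ki.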

Sequence of menin protein (O00255 whole entry): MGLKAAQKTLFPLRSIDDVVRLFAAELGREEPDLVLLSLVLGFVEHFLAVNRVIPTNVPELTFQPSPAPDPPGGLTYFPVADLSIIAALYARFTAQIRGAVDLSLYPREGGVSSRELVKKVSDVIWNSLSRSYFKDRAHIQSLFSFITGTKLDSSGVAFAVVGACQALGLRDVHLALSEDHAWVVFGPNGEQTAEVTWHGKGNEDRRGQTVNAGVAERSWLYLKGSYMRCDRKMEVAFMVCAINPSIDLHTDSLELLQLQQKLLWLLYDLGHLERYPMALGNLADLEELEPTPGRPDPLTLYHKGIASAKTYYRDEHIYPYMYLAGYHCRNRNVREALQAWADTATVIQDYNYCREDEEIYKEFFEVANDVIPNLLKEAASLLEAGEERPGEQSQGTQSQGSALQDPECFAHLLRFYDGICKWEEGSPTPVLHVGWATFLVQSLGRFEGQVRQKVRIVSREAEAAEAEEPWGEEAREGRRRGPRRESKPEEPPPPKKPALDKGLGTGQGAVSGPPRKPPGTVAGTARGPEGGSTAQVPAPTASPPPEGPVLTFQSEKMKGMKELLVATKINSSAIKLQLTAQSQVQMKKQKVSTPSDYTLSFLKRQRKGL

**Q.** Which “Menin Binding Affinity IC50 (μM)” value does the source give for `N#Cc1ccc(OCCCN2CC(C3(C4CCCC4)NCCc4ccccc43)C2)cc1` (centres unmarked) [compound 60, 4-(3-(3-(1-cyclopentyl-1,2,3,4-tetrahydroisoquinolin-1-yl)azetidin-1-yl)propoxy)benzonitrile] here?
**A.** The value was “No inhibition”.

**Q.** For `CCN1Cc2ccccc2C(C2CCCC2)(C2CCN(S(=O)(=O)C3CN(c4ccc(S(=O)(=O)c5ccncc5)cc4)C3)CC2)C1` (centres unmarked) [compound 160, 4-cyclopentyl-2-ethyl-4-(1-((1-(4-(pyridin-4-ylsulfonyl)phenyl)azetidin-3-yl)sulfonyl)piperidin-4-yl)-1,2,3,4-tetrahydroisoquinoline], which “Menin Binding Affinity IC50 (μM)” value is on record?
**A.** Its value is “No inhibition”.

same assay, conditions: FP competitive binding; menin protein 4 nM, FAM-MM2 probe 2 nM; read-out: Menin Binding Affinity IC50

**Q.** With `CO[C@H]1CCC[C@@H]1C(C#N)(c1ccccc1)C1CCN(CCCOc2ccc(C#N)cc2)CC1` (stereo partly drawn) [compound 174, 4-(3-(4-(cyano((1R,2S)-2-methoxycyclopentyl)(phenyl)methyl)piperidin-1-yl)propoxy)benzonitrile] as the compound, how does the IC50 read?
**A.** Its IC50 is 24.6 µM.

**Q.** Which IC50 does the source give for `CS(=O)(=O)CCC(C#N)(c1ccccc1)C1CCN(CCCOc2ccc(C#N)cc2)CC1` (centres unmarked) [compound 303, 4-(3-(4-(1-cyano-3-(methylsulfonyl)-1-phenylpropyl)piperidin-1-yl)propoxy)benzonitrile] here?
**A.** Its IC50 is 75.3 µM.

**Q.** Which IC50 does the source give for `C[C@H](NC(=O)O[C@H]1CCC[C@@H]1[C@](C#N)(c1ccccc1)C1CCN(CC2CN(c3ccc(S(=O)(=O)c4ccncc4)cc3)C2)CC1)c1ccccc1` [compound 217, (1S,2R)-2-((S)-cyano(phenyl)(1-((1-(4-(pyridin-4-ylsulfonyl)phenyl)azetidin-3-yl)methyl)piperidin-4-yl)methyl)cyclopentyl ((S)-1-phenylethyl)carbamate] here?
**A.** The IC50 was 11.6 µM.

**Q.** For `CCS(=O)(=O)c1ccc(N2CC(CN3CCC(C4(CC(C)(C)C)NCCc5ccccc54)CC3)C2)cc1` (centres unmarked) [compound 248, 1-(1-((1-(4-(ethylsulfonyl)phenyl)azetidin-3-yl)methyl)piperidin-4-yl)-1-neopentyl-1,2,3,4-tetrahydroisoquinoline], which IC50 is on record?
**A.** Its IC50 is 0.8 µM.

**Q.** For `CNC(=O)O[C@@H]1CCC[C@H]1C(Cn1ccnc1C)(c1cccc(F)c1)C1CCN(CC2CN(c3ccc(Cl)cc3)C2)CC1` (mixture of isomers) [compound 414, rac-(1R,2S)-2-(1-(1-((1-(4-chlorophenyl)azetidin-3-yl)methyl)piperidin-4-yl)-1-(3-fluorophenyl)-2-(2-methyl-1H-imidazol-1-yl)ethyl)cyclopentyl methylcarbamate], which IC50 is on record?
**A.** Its IC50 is 0.539 µM.

**Q.** Which IC50 does the source give for `FCC1(CF)CC(N2CCC(C3(C4CCCC4)NCCc4ccccc43)CC2)C1` (centres unmarked) [compound 56, 1-(1-(3,3-bis(fluoromethyl)cyclobutyl)piperidin-4-yl)-1-cyclopentyl-1,2,3,4-tetrahydroisoquinoline] here?
**A.** The IC50 was 18.2 µM.

**Q.** `CNC(=O)O[C@@H]1CCC[C@H]1C(C#N)(c1ccccc1)C1CCN(CCCOc2ccc(C#N)cc2)CC1` (mixture of isomers) [compound 233, rac-(1R,2S)-2-(cyano(1-(3-(4-cyanophenoxy)propyl)piperidin-4-yl)(phenyl)methyl)cyclopentyl methylcarbamate] was tested. Which IC50 did it give?
**A.** Its IC50 is 0.178 µM.

**Q.** `CC(=O)N1CCC[C@@H]1C(C#N)(c1ccccc1)C1CCN(CCCOc2ccc(C#N)cc2)CC1` (stereo partly drawn) [compound 331, 4-(3-(4-(((R)-1-acetylpyrrolidin-2-yl)(cyano)(phenyl)methyl)piperidin-1-yl)propoxy)benzonitrile] was tested. Which IC50 did it give?
**A.** Its IC50 is 23.3 µM.

**Q.** With `CNC(=O)O[C@@H]1CCC[C@H]1C(CN1CCCC1)(c1ccccc1)C1CCN(CC2CN(c3ccc(S(=O)(=O)c4ccccc4)cc3)C2)CC1` (mixture of isomers) [compound 360, rac-(1R,2S)-2-(1-phenyl-1-(1-((1-(4-(phenylsulfonyl)phenyl)azetidin-3-yl)methyl)piperidin-4-yl)-2-(pyrrolidin-1-yl)ethyl)cyclopentyl methylcarbamate] as the compound, how does the IC50 read?
**A.** The IC50 was 1.4 µM.

**Q.** Which IC50 does the source give for `N#Cc1ccc(OCCCN2CCC(C3(C4CCC4)NCCc4ccccc43)CC2)cc1` (centres unmarked) [compound 247, 4-(3-(4-(1-cyclobutyl-1,2,3,4-tetrahydroisoquinolin-1-yl)piperidin-1-yl)propoxy)benzonitrile] here?
**A.** The IC50 was 1.1 µM.

**Q.** How did the IC50 turn out when `CNC(=O)O[C@@H]1CCC[C@H]1C(C#N)(c1ccccc1)C1CCN(CC2CN(c3ccc(C#N)cc3)C2)CC1` (mixture of isomers) [compound 364, rac-(1R,2S)-2-(cyano(1-((1-(4-cyanophenyl)azetidin-3-yl)methyl)piperidin-4-yl)(phenyl)methyl)cyclopentyl methylcarbamate] was run?
**A.** The IC50 was 3.1 µM.

**Q.** With `CO[C@H]1CCC[C@@H]1C1(C2CCN(CCCOc3ccc(C(=O)O)cc3)CC2)CNCc2ccccc21` (mixture of isomers) [compound 328, rac-4-(3-(4-(4-((1R,2S)-2-methoxycyclopentyl)-1,2,3,4-tetrahydroisoquinolin-4-yl)piperidin-1-yl)propoxy)benzoic acid] as the compound, how does the IC50 read?
**A.** The IC50 was 119 µM.

**Q.** With `CC(=O)N[C@H]1CCC[C@@H]1C(C#N)(c1ccccc1)C1CCN(CC2CN(c3ccc(C#N)cc3)C2)CC1` (mixture of isomers) [compound 382, rac-N-((1S,2R)-2-(cyano(1-((1-(4-cyanophenyl)azetidin-3-yl)methyl)piperidin-4-yl)(phenyl)methyl)cyclopentyl)acetamide] as the compound, how does the IC50 read?
**A.** The IC50 was 0.102 µM.

**Q.** For `N#CC(c1ccccc1)(C1CCN(CC2CN(c3ccc(S(=O)(=O)c4ccncc4)cc3)C2)CC1)[C@H]1CCC[C@@H]1CCO` (mixture of isomers) [compound 342, rac-2-((1S,2R)-2-(2-hydroxyethyl)cyclopentyl)-2-phenyl-2-(1-((1-(4-(pyridin-4-ylsulfonyl)phenyl)azetidin-3-yl)methyl)piperidin-4-yl)acetonitrile], which IC50 is on record?
**A.** The IC50 was 0.897 µM.

**Q.** For `CN1Cc2ccccc2C(C2CCCC2)(C2CCN(CC3CN(c4ccc(S(C)(=O)=O)cc4)C3)CC2)C1` (centres unmarked) [compound 64, 4-cyclopentyl-2-methyl-4-(1-((1-(4-(methylsulfonyl)phenyl)azetidin-3-yl)methyl)piperidin-4-yl)-1,2,3,4-tetrahydroisoquinoline], which IC50 is on record?
**A.** The IC50 was 0.061 µM.

**Q.** `N#Cc1ccc(N2CC(CN3CCC(C4(C5CCCC5)NCCc5ccccc54)CC3)C2)nc1` (centres unmarked) [compound 110, 6-(3-((4-(1-cyclopentyl-1,2,3,4-tetrahydroisoquinolin-1-yl)piperidin-1-yl)methyl)azetidin-1-yl)nicotinonitrile] was tested. Which IC50 did it give?
**A.** Its IC50 is 575 µM.

**Q.** `CCN1Cc2ccccc2C(C2CCCC2)(C2CCN(CC3(C)CN(c4ccc(S(=O)(=O)c5ccncc5)cc4)C3)CC2)C1` (centres unmarked) [compound 161, 4-cyclopentyl-2-ethyl-4-(1-((3-methyl-1-(4-(pyridin-4-ylsulfonyl)phenyl)azetidin-3-yl)methyl)piperidin-4-yl)-1,2,3,4-tetrahydroisoquinoline] was tested. Which IC50 did it give?
**A.** The IC50 was 0.021 µM.

**Q.** How did the IC50 turn out when `N#Cc1ccc(OCCCN2CCC(C3(C4CCCC4)NCCc4ccccc43)C2)cc1` (centres unmarked) [compound 108, 4-(3-(3-(1-cyclopentyl-1,2,3,4-tetrahydroisoquinolin-1-yl)pyrrolidin-1-yl)propoxy)benzonitrile] was run?
**A.** Its IC50 is 56.5 µM.

**Q.** How did the IC50 turn out when `CNC(=O)O[C@H]1CCC[C@@H]1C(C#N)(c1ccccc1)C1CCN(CC2CN(c3ccc(C(C)(C)C)cc3)C2)CC1` (mixture of isomers) [compound 422, rac-(1S,2R)-2-((1-((1-(4-(tert-butyl)phenyl)azetidin-3-yl)methyl)piperidin-4-yl)(cyano)(phenyl)methyl) cyclopentyl methylcarbamate] was run?
**A.** Its IC50 is 0.028 µM.

**Q.** How did the IC50 turn out when `O=S(=O)(c1ccc(CCN2CCc3cc(C4(C5CCCC5)NCCc5ccccc54)ccc3C2)cc1)C1CC1` (centres unmarked) [compound 99, 1-cyclopentyl-2′-(4-(cyclopropylsulfonyl)phenethyl)-1,1′,2,2′,3,3′,4,4′-octahydro-1,6′-biisoquinoline] was run?
**A.** The IC50 was 0.802 µM.

**Q.** With `CC(=O)O[C@@H]1CCC[C@H]1C(C#N)(c1cccc(F)c1)C1CCN(CC2CN(c3ccc(C#N)cc3)C2)CC1` (mixture of isomers) [compound 416, rac-(1R,2S)-2-(cyano(1-((1-(4-cyanophenyl)azetidin-3-yl)methyl)piperidin-4-yl)(3-fluorophenyl)methyl) cyclopentyl acetate] as the compound, how does the IC50 read?
**A.** Its IC50 is 3.28 µM.

**Q.** How did the IC50 turn out when `CN1COCN([C@H]2CCC[C@@H]2C(C#N)(c2ccccc2)C2CCN(CC3CN(c4ccc(S(=O)(=O)c5ccncc5)cc4)C3)CC2)C1=O` (mixture of isomers) [compound 279, rac-2-((1R,2S)-2-(5-methyl-4-oxo-1,3,5-oxadiazinan-3-yl)cyclopentyl)-2-phenyl-2-(1-((1-(4-(pyridin-4-ylsulfonyl)phenyl)azetidin-3-yl)methyl)piperidin-4-yl)acetonitrile] was run?
**A.** The IC50 was 0.065 µM.

**Q.** For `CC(=O)O[C@@H]1CCC[C@H]1C(C#N)(c1cccc(F)c1)C1CCN(CC2CN(c3ccc(S(=O)(=O)c4ccccc4)cc3)C2)CC1` (mixture of isomers) [compound 313, rac-(1R,2S)-2-(cyano(3-fluorophenyl)(1-((1-(4-(phenylsulfonyl)phenyl)azetidin-3-yl)methyl)piperidin-4-yl)methyl)cyclopentyl acetate], which IC50 is on record?
**A.** Its IC50 is 13.8 µM.

**Q.** How did the IC50 turn out when `CN1COCN([C@@H]2CCC[C@H]2C(C#N)(c2ccccc2)C2CCN(CC3CN(c4ccc(S(=O)(=O)c5ccncc5)cc4)C3)CC2)C1=O` (mixture of isomers) [compound 280, rac-2-((1S,2R)-2-(5-methyl-4-oxo-1,3,5-oxadiazinan-3-yl)cyclopentyl)-2-phenyl-2-(1-((1-(4-(pyridin-4-ylsulfonyl)phenyl)azetidin-3-yl)methyl)piperidin-4-yl)acetonitrile] was run?
**A.** The IC50 was 1.4 µM.

**Q.** How did the IC50 turn out when `c1ccc2c(c1)CCNC2(C1CCCC1)C1CCNCC1` (centres unmarked) [compound 72, 1-cyclopentyl-1-(piperidin-4-yl)-1,2,3,4-tetrahydroisoquinoline] was run?
**A.** The IC50 was 610 µM.

**Q.** `CC(C)CCC1(C2CCN(CCCOc3ccc(C#N)cc3)CC2)NCCc2ccccc21` (centres unmarked) [compound 250, 4-(3-(4-(1-isopentyl-1,2,3,4-tetrahydroisoquinolin-1-yl)piperidin-1-yl)propoxy)benzonitrile] was tested. Which IC50 did it give?
**A.** Its IC50 is 4.7 µM.

**Q.** Which IC50 does the source give for `C=C(C)CC1(C2CCN(CCCOc3ccc(C#N)cc3)CC2)NCCc2ccccc21` (centres unmarked) [compound 173, 4-(3-(4-(1-(2-methylallyl)-1,2,3,4-tetrahydroisoquinolin-1-yl)piperidin-1-yl)propoxy)benzonitrile] here?
**A.** Its IC50 is 3 µM.
